Laboratory results as given in paper PMC9229843, “Cancer-Related Somatic Mutations in Transmembrane Helices Alter Adenosine A1 Receptor Pharmacology” (Molecules, 2022).
Where a chain is given by its changes, count along the chain named.

Tests used:
hA1AR A52V^2.47 = biological target: T1, hA1AR A52V^2.47 (Homo sapiens, UniProt P30542, A52V); assay: yeast liquid growth assay; type: cell-based
T1 construct: expressed in transfected cells; host or cells: S. cerevisiae MMY24
T1 sequence (P30542 1-326 A52V): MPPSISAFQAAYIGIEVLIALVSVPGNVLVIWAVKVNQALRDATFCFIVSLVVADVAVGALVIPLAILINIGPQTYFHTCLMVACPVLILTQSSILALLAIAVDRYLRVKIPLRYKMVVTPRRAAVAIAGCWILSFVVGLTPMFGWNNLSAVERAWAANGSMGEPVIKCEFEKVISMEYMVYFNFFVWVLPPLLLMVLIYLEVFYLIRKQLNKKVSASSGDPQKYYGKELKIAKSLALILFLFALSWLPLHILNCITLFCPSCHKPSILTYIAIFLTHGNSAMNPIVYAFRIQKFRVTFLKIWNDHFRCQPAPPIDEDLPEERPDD

hA1AR D55G^2.50 = biological target: T2, hA1AR D55G^2.50 (Homo sapiens, UniProt P30542, D55G); assay: yeast liquid growth assay; type: cell-based; conditions: result in words
T2 construct: expressed in transfected cells; host or cells: S. cerevisiae MMY24
T2 sequence (P30542 1-326 D55G): T1 sequence (P30542 1-326 A52V) with V52A, D55G

hA1AR G279S^7.44 = biological target: T3, hA1AR G279S^7.44 (Homo sapiens, UniProt P30542, G279S); assay: yeast liquid growth assay; type: cell-based; conditions: ratio over basal activity of wild type hA1AR, 7 mM 3-AT
T3 sequence (P30542 1-326 G279S): T1 sequence (P30542 1-326 A52V) with V52A, G279S

hA1AR S246T^6.47 = biological target: T4, hA1AR S246T^6.47 (Homo sapiens, UniProt P30542, S246T); conditions: ratio over basal activity of wild type hA1AR; yeast; 7 mM 3-AT
T4 sequence (P30542 1-326 S246T): T1 sequence (P30542 1-326 A52V) with V52A, S246T
Protocol: The plasmids, pDT-PGK_hA1AR, containing either wild type or mutated hA1AR were transformed into a MMY24 S. cerevisiae strain following the lithium acetate procedure.
In order to characterize the mutant hA1ARs, liquid growth assays in 96-well plates were performed to obtain concentration–growth curves as previously described. […] The overnight cultures were then diluted to 40,000 cells/mL (OD600 ≈ 0.02) in a selective medium without uracil, leucine, and histidine (YNB-ULH). For the determination of constitutive activity, 50 μL of yeast cells and 150 μL of YNB-ULH medium containing different concentrations of 3-AT and 0.8 IU/mL ADA were then added to each well. […] After incubation at 30 °C for 35 h in a Genios plate reader (TECAN, Zürich, Switzerland) with shaking for 1 min at 300 rpm every 10 min, the optical density was measured at a wavelength of 595 nm, which represented the level of yeast cell growth.
All experimental data were analyzed by GraphPad Prism 7.0 or 8.0 (GraphPad Software Inc., San Diego, CA, USA). Data from yeast liquid growth and [^35S]GTPγS binding assays were analyzed by non-linear regression using “log (agonist) vs. response (three parameters)” or “log (inhibitor) vs. response (three parameters)” to obtain potency (EC50), inhibitory potency (IC50), and efficacy (Emax or Imax) values. […]

OC[C@H]1O[C@@H](n2cnc3c(NC4CCCC4)ncnc32)[C@H](O)[C@@H]1O [CPA, N^6-cyclopentyladenosine]
decrease in potency versus wild type hA1AR (hA1AR A52V^2.47): more than 400 fold | agonist-induced receptor activation (hA1AR D55G^2.50): could not be activated | Emax (hA1AR G279S^7.44): 4.96 ± 0.38 | Emax (hA1AR S246T^6.47): 4.81 ± 0.26
